# Earlier results as cited in article PMC3800486 (Amino acids, 2013).
# System: polo-like kinase 1 (Plk1) polo box domain (PBD)
# Details: previously shown; ref Yun et al. 2009; Liu et al. 2011; Liu et al. 2012b, a
substance,measurement,value
Ac-Pro-Leu-His-Ser-Pmab-amide,affinity for the Plk1 PBD (in words),good affinity
